# Results: patent US6958350B2, “Chemical compounds” (AstraZeneca AB, priority 2001, dated 2005)
row,melting point [°C],Structure (SMILES)
1,191 to 217,"O=C(Cc1nnc(Nc2ccccc2)o1)NC1CCN(Cc2ccc(Cl)c(Cl)c2)CC1 [Compound No. 1 of Table I, N-[1-(3,4-Dichlorobenzyl)-piperidin-4-yl]-2-(5-phenylamino-[1,3,4]oxadiazol-2-yl)-acetamide]"
2,191 to 192,"O=C(Cc1csc(Nc2ccccc2)n1)NC1CCN(Cc2ccc(Cl)c(Cl)c2)CC1 [Compound No. 1 of Table V, 2-(2-Anilino-1,3-thiazol-4-yl)-N-[1-(3,4-dichlorobenzyl)piperidin-4-yl]acetamide]"
3,154 to 156,"O=C(CCc1nnc(Nc2ccccc2Cl)o1)NC1CCN(Cc2ccc(Cl)c(Cl)c2)CC1 [Compound No. 6 of Table I, 3-[5-(2-chloro-phenylamino)-[1,3,4]oxadiazol-2-yl]-N-[1-(3,4-dichloro-benzyl)-piperidin-4-yl]-propionamide]"
4,162 to 163,"O=C(CCc1nnc(Nc2ccccc2Cl)o1)NC1CCN(Cc2ccc(F)c(F)c2)CC1 [Compound No. 22 of Table I, 3-[5-(2-chloro-phenylamino)-[1,3,4]oxadiazol-2-yl]-N-[1-(3,4-difluorobenzyl)-piperidin-4-yl]-propionamide]"
